{"source": "the NIST ThermoML archive (doi:10.1016/j.fluid.2012.11.005)", "assay": "excess molar enthalpy (molar enthalpy of mixing); xn = mol fraction of the nth substance listed", "details": "101 kPa, Liquid, Flow calorimetry", "note": "Numbers after ± are expanded uncertainties.", "data": [{"smiles": "CC(C)CC(C)(C)C", "note": "[2,2,4-trimethylpentane] + CCCCCO", "values": [{"measurement": "excess molar enthalpy", "setting": "298.15 K, x2 = 0", "value": "0 ± 0.000239", "unit": "kcal/mol"}, {"measurement": "excess molar enthalpy", "setting": "313.15 K, x2 = 0", "value": "0 ± 0.000239", "unit": "kcal/mol"}]}, {"smiles": "CCCCCO", "note": "[pentan-1-ol] + CC(C)CC(C)(C)C", "values": [{"measurement": "excess molar enthalpy", "setting": "298.15 K, x1 = 0.0508", "value": "0.0899 ± 0.00122", "unit": "kcal/mol"}, {"measurement": "excess molar enthalpy", "setting": "298.15 K, x1 = 0.0999", "value": "0.112 ± 0.00148", "unit": "kcal/mol"}, {"measurement": "excess molar enthalpy", "setting": "298.15 K, x1 = 0.1501", "value": "0.126 ± 0.00165", "unit": "kcal/mol"}, {"measurement": "excess molar enthalpy", "setting": "298.15 K, x1 = 0.2008", "value": "0.137 ± 0.00177", "unit": "kcal/mol"}, {"measurement": "excess molar enthalpy", "setting": "298.15 K, x1 = 0.25", "value": "0.143 ± 0.00186", "unit": "kcal/mol"}, {"measurement": "excess molar enthalpy", "setting": "298.15 K, x1 = 0.2999", "value": "0.148 ± 0.00191", "unit": "kcal/mol"}, {"measurement": "excess molar enthalpy", "setting": "298.15 K, x1 = 0.3516", "value": "0.148 ± 0.00191", "unit": "kcal/mol"}, {"measurement": "excess molar enthalpy", "setting": "298.15 K, x1 = 0.4025", "value": "0.147 ± 0.00191", "unit": "kcal/mol"}, {"measurement": "excess molar enthalpy", "setting": "298.15 K, x1 = 0.4514", "value": "0.145 ± 0.00189", "unit": "kcal/mol"}, {"measurement": "excess molar enthalpy", "setting": "298.15 K, x1 = 0.5025", "value": "0.139 ± 0.00182", "unit": "kcal/mol"}, {"measurement": "excess molar enthalpy", "setting": "298.15 K, x1 = 0.5516", "value": "0.131 ± 0.00172", "unit": "kcal/mol"}, {"measurement": "excess molar enthalpy", "setting": "298.15 K, x1 = 0.6025", "value": "0.121 ± 0.00158", "unit": "kcal/mol"}, {"measurement": "excess molar enthalpy", "setting": "298.15 K, x1 = 0.6513", "value": "0.109 ± 0.00143", "unit": "kcal/mol"}, {"measurement": "excess molar enthalpy", "setting": "298.15 K, x1 = 0.7015", "value": "0.0951 ± 0.00127", "unit": "kcal/mol"}, {"measurement": "excess molar enthalpy", "setting": "298.15 K, x1 = 0.7512", "value": "0.0802 ± 0.0011", "unit": "kcal/mol"}, {"measurement": "excess molar enthalpy", "setting": "298.15 K, x1 = 0.8003", "value": "0.064 ± 0.000884", "unit": "kcal/mol"}, {"measurement": "excess molar enthalpy", "setting": "298.15 K, x1 = 0.8503", "value": "0.048 ± 0.000693", "unit": "kcal/mol"}, {"measurement": "excess molar enthalpy", "setting": "298.15 K, x1 = 0.9008", "value": "0.0311 ± 0.000502", "unit": "kcal/mol"}, {"measurement": "excess molar enthalpy", "setting": "298.15 K, x1 = 0.9503", "value": "0.0147 ± 0.000311", "unit": "kcal/mol"}, {"measurement": "excess molar enthalpy", "setting": "298.15 K, x1 = 1", "value": "0 ± 0.000239", "unit": "kcal/mol"}, {"measurement": "excess molar enthalpy", "setting": "313.15 K, x1 = 0.051", "value": "0.124 ± 0.00165", "unit": "kcal/mol"}, {"measurement": "excess molar enthalpy", "setting": "313.15 K, x1 = 0.1003", "value": "0.155 ± 0.00201", "unit": "kcal/mol"}, {"measurement": "excess molar enthalpy", "setting": "313.15 K, x1 = 0.1506", "value": "0.174 ± 0.00225", "unit": "kcal/mol"}, {"measurement": "excess molar enthalpy", "setting": "313.15 K, x1 = 0.2019", "value": "0.187 ± 0.00239", "unit": "kcal/mol"}, {"measurement": "excess molar enthalpy", "setting": "313.15 K, x1 = 0.2512", "value": "0.194 ± 0.00239", "unit": "kcal/mol"}, {"measurement": "excess molar enthalpy", "setting": "313.15 K, x1 = 0.3012", "value": "0.199 ± 0.00263", "unit": "kcal/mol"}, {"measurement": "excess molar enthalpy", "setting": "313.15 K, x1 = 0.3517", "value": "0.2 ± 0.00263", "unit": "kcal/mol"}, {"measurement": "excess molar enthalpy", "setting": "313.15 K, x1 = 0.4026", "value": "0.199 ± 0.00263", "unit": "kcal/mol"}, {"measurement": "excess molar enthalpy", "setting": "313.15 K, x1 = 0.4514", "value": "0.194 ± 0.00239", "unit": "kcal/mol"}, {"measurement": "excess molar enthalpy", "setting": "313.15 K, x1 = 0.5026", "value": "0.187 ± 0.00239", "unit": "kcal/mol"}, {"measurement": "excess molar enthalpy", "setting": "313.15 K, x1 = 0.5517", "value": "0.177 ± 0.00227", "unit": "kcal/mol"}, {"measurement": "excess molar enthalpy", "setting": "313.15 K, x1 = 0.6026", "value": "0.164 ± 0.0021", "unit": "kcal/mol"}, {"measurement": "excess molar enthalpy", "setting": "313.15 K, x1 = 0.6513", "value": "0.148 ± 0.00191", "unit": "kcal/mol"}, {"measurement": "excess molar enthalpy", "setting": "313.15 K, x1 = 0.7016", "value": "0.13 ± 0.0017", "unit": "kcal/mol"}, {"measurement": "excess molar enthalpy", "setting": "313.15 K, x1 = 0.7513", "value": "0.11 ± 0.00146", "unit": "kcal/mol"}, {"measurement": "excess molar enthalpy", "setting": "313.15 K, x1 = 0.8003", "value": "0.088 ± 0.0012", "unit": "kcal/mol"}, {"measurement": "excess molar enthalpy", "setting": "313.15 K, x1 = 0.8503", "value": "0.0654 ± 0.000908", "unit": "kcal/mol"}, {"measurement": "excess molar enthalpy", "setting": "313.15 K, x1 = 0.9008", "value": "0.0423 ± 0.000645", "unit": "kcal/mol"}, {"measurement": "excess molar enthalpy", "setting": "313.15 K, x1 = 0.9503", "value": "0.0205 ± 0.000382", "unit": "kcal/mol"}, {"measurement": "excess molar enthalpy", "setting": "313.15 K, x1 = 1", "value": "0 ± 0.000239", "unit": "kcal/mol"}]}, {"smiles": "CCCCCCC", "note": "[heptane] + CCCCCO", "values": [{"measurement": "excess molar enthalpy", "setting": "298.15 K, x2 = 0", "value": "0 ± 0.000239", "unit": "kcal/mol"}, {"measurement": "excess molar enthalpy", "setting": "313.15 K, x2 = 0", "value": "0 ± 0.000239", "unit": "kcal/mol"}]}, {"smiles": "CCCCCO", "note": "[pentan-1-ol] + CCCCCCC", "values": [{"measurement": "excess molar enthalpy", "setting": "298.15 K, x1 = 0.0563", "value": "0.088 ± 0.0012", "unit": "kcal/mol"}, {"measurement": "excess molar enthalpy", "setting": "298.15 K, x1 = 0.1109", "value": "0.111 ± 0.00146", "unit": "kcal/mol"}, {"measurement": "excess molar enthalpy", "setting": "298.15 K, x1 = 0.1664", "value": "0.125 ± 0.00165", "unit": "kcal/mol"}, {"measurement": "excess molar enthalpy", "setting": "298.15 K, x1 = 0.2203", "value": "0.134 ± 0.00174", "unit": "kcal/mol"}, {"measurement": "excess molar enthalpy", "setting": "298.15 K, x1 = 0.2749", "value": "0.141 ± 0.00184", "unit": "kcal/mol"}, {"measurement": "excess molar enthalpy", "setting": "298.15 K, x1 = 0.3279", "value": "0.145 ± 0.00186", "unit": "kcal/mol"}, {"measurement": "excess molar enthalpy", "setting": "298.15 K, x1 = 0.3793", "value": "0.146 ± 0.00189", "unit": "kcal/mol"}, {"measurement": "excess molar enthalpy", "setting": "298.15 K, x1 = 0.4314", "value": "0.144 ± 0.00186", "unit": "kcal/mol"}, {"measurement": "excess molar enthalpy", "setting": "298.15 K, x1 = 0.4818", "value": "0.139 ± 0.00182", "unit": "kcal/mol"}, {"measurement": "excess molar enthalpy", "setting": "298.15 K, x1 = 0.5328", "value": "0.131 ± 0.00172", "unit": "kcal/mol"}, {"measurement": "excess molar enthalpy", "setting": "298.15 K, x1 = 0.5822", "value": "0.122 ± 0.0016", "unit": "kcal/mol"}, {"measurement": "excess molar enthalpy", "setting": "298.15 K, x1 = 0.6281", "value": "0.11 ± 0.00146", "unit": "kcal/mol"}, {"measurement": "excess molar enthalpy", "setting": "298.15 K, x1 = 0.6765", "value": "0.0984 ± 0.00131", "unit": "kcal/mol"}, {"measurement": "excess molar enthalpy", "setting": "298.15 K, x1 = 0.7235", "value": "0.0849 ± 0.00115", "unit": "kcal/mol"}, {"measurement": "excess molar enthalpy", "setting": "298.15 K, x1 = 0.7725", "value": "0.071 ± 0.00098", "unit": "kcal/mol"}, {"measurement": "excess molar enthalpy", "setting": "298.15 K, x1 = 0.8182", "value": "0.0576 ± 0.000813", "unit": "kcal/mol"}, {"measurement": "excess molar enthalpy", "setting": "298.15 K, x1 = 0.8643", "value": "0.0427 ± 0.000645", "unit": "kcal/mol"}, {"measurement": "excess molar enthalpy", "setting": "298.15 K, x1 = 0.9104", "value": "0.0282 ± 0.000478", "unit": "kcal/mol"}, {"measurement": "excess molar enthalpy", "setting": "298.15 K, x1 = 0.9552", "value": "0.0138 ± 0.000311", "unit": "kcal/mol"}, {"measurement": "excess molar enthalpy", "setting": "298.15 K, x1 = 1", "value": "0 ± 0.000239", "unit": "kcal/mol"}, {"measurement": "excess molar enthalpy", "setting": "313.15 K, x1 = 0.0484", "value": "0.113 ± 0.00153", "unit": "kcal/mol"}, {"measurement": "excess molar enthalpy", "setting": "313.15 K, x1 = 0.0981", "value": "0.148 ± 0.00191", "unit": "kcal/mol"}, {"measurement": "excess molar enthalpy", "setting": "313.15 K, x1 = 0.149", "value": "0.165 ± 0.00213", "unit": "kcal/mol"}, {"measurement": "excess molar enthalpy", "setting": "313.15 K, x1 = 0.1985", "value": "0.177 ± 0.00227", "unit": "kcal/mol"}, {"measurement": "excess molar enthalpy", "setting": "313.15 K, x1 = 0.2491", "value": "0.187 ± 0.00239", "unit": "kcal/mol"}, {"measurement": "excess molar enthalpy", "setting": "313.15 K, x1 = 0.2983", "value": "0.19 ± 0.00239", "unit": "kcal/mol"}, {"measurement": "excess molar enthalpy", "setting": "313.15 K, x1 = 0.3483", "value": "0.192 ± 0.00239", "unit": "kcal/mol"}, {"measurement": "excess molar enthalpy", "setting": "313.15 K, x1 = 0.3991", "value": "0.186 ± 0.00239", "unit": "kcal/mol"}, {"measurement": "excess molar enthalpy", "setting": "313.15 K, x1 = 0.4484", "value": "0.186 ± 0.00239", "unit": "kcal/mol"}, {"measurement": "excess molar enthalpy", "setting": "313.15 K, x1 = 0.4984", "value": "0.177 ± 0.00227", "unit": "kcal/mol"}, {"measurement": "excess molar enthalpy", "setting": "313.15 K, x1 = 0.5488", "value": "0.166 ± 0.00215", "unit": "kcal/mol"}, {"measurement": "excess molar enthalpy", "setting": "313.15 K, x1 = 0.5977", "value": "0.159 ± 0.00206", "unit": "kcal/mol"}, {"measurement": "excess molar enthalpy", "setting": "313.15 K, x1 = 0.6489", "value": "0.144 ± 0.00186", "unit": "kcal/mol"}, {"measurement": "excess molar enthalpy", "setting": "313.15 K, x1 = 0.7003", "value": "0.124 ± 0.00163", "unit": "kcal/mol"}, {"measurement": "excess molar enthalpy", "setting": "313.15 K, x1 = 0.7483", "value": "0.106 ± 0.00141", "unit": "kcal/mol"}, {"measurement": "excess molar enthalpy", "setting": "313.15 K, x1 = 0.7981", "value": "0.0845 ± 0.00115", "unit": "kcal/mol"}, {"measurement": "excess molar enthalpy", "setting": "313.15 K, x1 = 0.8497", "value": "0.0637 ± 0.000884", "unit": "kcal/mol"}, {"measurement": "excess molar enthalpy", "setting": "313.15 K, x1 = 0.8995", "value": "0.042 ± 0.000645", "unit": "kcal/mol"}, {"measurement": "excess molar enthalpy", "setting": "313.15 K, x1 = 0.9491", "value": "0.0196 ± 0.000382", "unit": "kcal/mol"}, {"measurement": "excess molar enthalpy", "setting": "313.15 K, x1 = 1", "value": "0 ± 0.000239", "unit": "kcal/mol"}]}]}
